Data from patent US9850227B2 (YUHAN CORPORATION, priority 2011, dated 2017).
Structures can show the parent of a compound that is named as a salt.

Biological target: T1, human 5-HT4(a) (Homo sapiens, UniProt Q13639)
T1 construct: host or cells: GeneBIAzer HTR4-CRE-bla CHO-K1 cells
Assay: Evaluation of agonistic activity in CHO-K1 cells expressing human 5-HT4(a) (GeneBIAzer HTR4-CRE-bla CHO-K1 cells, beta-lactamase fluorescence ratio, EC50 from 8 concentrations)
Format: cell-based
In short: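 HTR4-CRE-bla CHO-K1 cells (10^4 per well, overnight in 1% FBS medium) exposed to compound for 5 h, then beta-lactamase substrate 2 h in the dark. Fluorescence ratio at 465/535 nm after 410 nm excitation; EC50 by non-linear regression over 8 concentrations.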

T1 sequence (Q13639 1-387 isoform Q13639-2): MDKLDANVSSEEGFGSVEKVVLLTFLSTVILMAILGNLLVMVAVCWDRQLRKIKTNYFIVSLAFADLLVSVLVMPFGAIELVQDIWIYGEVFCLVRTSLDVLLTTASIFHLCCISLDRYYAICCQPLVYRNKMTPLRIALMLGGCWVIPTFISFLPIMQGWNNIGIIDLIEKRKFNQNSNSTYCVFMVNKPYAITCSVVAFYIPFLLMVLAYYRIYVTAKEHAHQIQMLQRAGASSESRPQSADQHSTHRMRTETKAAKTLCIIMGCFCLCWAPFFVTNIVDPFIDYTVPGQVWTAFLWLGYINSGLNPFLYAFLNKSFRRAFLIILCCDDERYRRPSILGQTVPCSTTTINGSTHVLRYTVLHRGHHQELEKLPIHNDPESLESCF

| Compound | EC50 [nM] |
| --- | --- |
| CCCc1cc(N2CCC[C@@H](NC(=O)CO)C2)nc(Nc2ccc(C)c(C(F)(F)F)c2)n1 [Example 254, (R)-2-hydroxy-N-(1-{2-[4-methyl-3-(trifluoromethyl)phenylamino]-6-propylpyrimidin-4-yl}piperidin-3-yl)acetamide] | 0.038 |
| CCCc1cc(N2CCC[C@@H](NC(=O)CO)C2)nc(Nc2cc(N)cc(C#N)c2)n1 [Example 255, (R)—N-{1-[2-(3-amino-5-cyanophenylamino)-6-propylpyrimidin-4-yl]piperidin-3-yl}-2-hydroxyacetamide] | 0.016 |
| CCCc1cc(N2CCC[C@@H](N)C2)nc(Nc2cc(N)cc(C(F)(F)F)c2)n1 [Example 256, (R)—N^1-[4-(3-aminopiperidin-1-yl)-6-propylpyrimidin-2-yl]-5-(trifluoromethyl)benzene-1,3-diamine] | 0.012 |
| CCCc1cc(N2CCC[C@@H](N)C2)nc(Nc2ccc(N)c(C(F)(F)F)c2)n1 [Example 257, (R)—N^1-[4-(3-aminopiperidin-1-yl)-6-propylpyrimidin-2-yl]-3-(trifluoromethyl)benzene-1,4-diamine] | 0.042 |
| CCCc1cc(N2CCC[C@@H](N)C2)nc(Nc2ccc(F)c(N)c2)n1 [Example 259, (R)—N^1-[4-(3-aminopiperidin-1-yl)-6-propylpyrimidin-2-yl]-4-fluorobenzene-1,3-diamine] | 0.084 |
| CCCc1cc(N2CCC[C@@H](N)C2)nc(Nc2cc(N)cc(C#N)c2)n1 [Example 260, (R)-3-amino-5-{[4-(3-aminopiperidin-1-yl)-6-propylpyrimidin-2-yl]amino}benzonitrile] | 0.0075 |
| CCCc1cc(N2CCC[C@@H](N)C2)nc(Nc2ccc(N)c(C#N)c2)n1 [Example 261, (R)-2-amino-5-{[4-(3-aminopiperidin-1-yl)-6-propylpyrimidin-2-yl]amino}benzonitrile] | 0.105 |
| CCCc1cc(N2CCC[C@@H](N)C2)nc(Nc2ccc(Cl)c(N)c2)n1 [Example 262, (R)—N^1-[4-(3-aminopiperidin-1-yl)-6-propylpyrimidin-2-yl]-4-chlorobenzene-1,3-diamine] | 0.021 |
| CCCc1cc(N2CCC[C@@H](N)C2)nc(Nc2ccc(C)c(C(F)(F)F)c2)n1 [Example 263, (R)-4-(3-aminopiperidin-1-yl)-N-[4-methyl-3-(trifluoromethyl)phenyl]-6-propylpyrimidin-2-amine] | 0.0072 |
| CCCc1cc(N2CCC[C@@H](N)C2)nc(Nc2ccc3cc[nH]c3c2)n1 [Example 264, (R)—N-[4-(3-aminopiperidin-1-yl)-6-propylpyrimidin-2-yl]-1H-indol-6-amine] | 0.328 |
| CCCc1cc(N2CCC[C@@H](N)C2)nc(Nc2ccc(C)c([N+](=O)[O-])c2)n1 [Example 265, (R)-4-(3-aminopiperidin-1-yl)-N-(4-methyl-3-nitrophenyl)-6-propylpyrimidin-2-amine] | 0.049 |
| CCCc1cc(N2CCC[C@@H](N)C2)nc(Nc2ccc(N)c([N+](=O)[O-])c2)n1 [Example 266, (R)—N^1-[4-(3-aminopiperidin-1-yl)-6-propylpyrimidin-2-yl]-3-nitrobenzene-1,4-diamine] | 0.0096 |
| CCCc1cc(N2CCC[C@@H](NCC3CC3)C2)nc(Nc2ccc(C)c(C#N)c2)n1 [Example 267, (R)-5-{4-[3-(cyclopropylmethylamino)piperidin-1-yl]-6-propylpyrimidin-2-ylamino}-2-methylbenzonitrile] | 0.088 |
| CCCc1cc(N2CCC[C@@H](NC(C)=O)C2)nc(Nc2ccc(F)c(C#N)c2)n1 [Example 268, (R)—N-{1-[2-(3-cyano-4-fluorophenylamino)-6-propylpyrimidin-4-yl]piperidin-3-yl}acetamide] | 0.025 |
| CCCc1cc(N2CCC[C@@H](N(CC)CC)C2)nc(Nc2ccc(C)c(C#N)c2)n1 [Example 269, (R)-5-[4-(3-diethylaminopiperidin-1-yl)-6-propylpyrimidin-2-ylamino]-2-methylbenzonitrile] | 0.016 |
| CCCc1cc(N2CCC[C@@H](N(CC)CC)C2)nc(Nc2ccc(F)c(C#N)c2)n1 [Example 270, (R)-5-[4-(3-diethylaminopiperidin-1-yl)-6-propylpyrimidin-2-ylamino]-2-fluorobenzonitrile] | 0.148 |
| CCCc1cc(N2CCC[C@@H](NCC)C2)nc(Nc2ccc(F)c(C#N)c2)n1 [Example 271, (R)-5-[4-(3-ethylaminopiperidin-1-yl)-6-propylpyrimidin-2-ylamino]-2-fluorobenzonitrile] | 0.026 |
| CCCCc1cc(N2CCC[C@@H](NC(C)=O)C2)nc(Nc2cccc(C#N)c2)n1 [Example 272, (R)—N-{1-[6-butyl-2-(3-cyanophenylamino)-pyrimidin-4-yl]-piperidin-3-yl}-acetamide hydrochloride] | 0.011 |
| CCCc1cc(N2CCC[C@@H](NC(C)=O)C2)nc(Nc2cccc(C#N)c2)n1 [Example 273, (R)—N-{1-[2-(3-cyanophenylamino)-6-propylpyrimidin-4-yl]piperidin-3-yl}acetamide] | 0.046 |

| Compound | EC50 [nM] |
| --- | --- |
| CCCc1cc(N2CCC[C@@H](NC(C)=O)C2)nc(Nc2cc(N)cc(C#N)c2)n1 [Example 274, (R)—N-{1-[2-(3-amino-5-cyanophenylamino)-6-propylpyrimidin-4-yl]piperidin-3-yl}acetamide] | 0.006 |
| CCCc1cc(N2CCCC(NC(C)=O)C2)nc(Nc2ccc(N)c([N+](=O)[O-])c2)n1 (centres unmarked) [Example 275, N-{1-[2-(4-amino-3-nitrophenylamino)-6-propylpyrimidin-4-yl]piperidin-3-yl}acetamide] | 0.0034 |
| CCCc1cc(N2CCCC(NC(C)=O)C2)nc(Nc2ccc(F)c(N)c2)n1 (centres unmarked) [Example 276, N-{1-[2-(3-amino-4-fluorophenylamino)-6-propylpyrimidin-4-yl]piperidin-3-yl}acetamide] | 0.018 |
| CCCc1cc(N2CCC[C@@H](NC(C)=O)C2)nc(Nc2ccc(F)c(C(F)(F)F)c2)n1 [Example 277, (R)—N-{1-[2-(4-fluoro-3-trifluoromethylphenylamino)-6-propylpyrimidin-4-yl]piperidin-3-yl}acetamide] | 0.014 |
| CCCc1cc(N2CCC[C@@H](NC(C)=O)C2)nc(Nc2cc(N)cc(C(F)(F)F)c2)n1 [Example 278, (R)—N-(1-{2-[3-amino-5-(trifluoromethyl)phenylamino]-6-propylpyrimidin-4-yl}piperidin-3-yl)acetamide] | 0.01 |
| CCCc1cc(N2CCC[C@@H](NC(C)=O)C2)nc(Nc2ccc(N)c(C(F)(F)F)c2)n1 [Example 279, (R)—N-(1-{2-[4-amino-3-(trifluoromethyl)phenylamino]-6-propylpyrimidin-4-yl}piperidin-3-yl)acetamide] | 0.014 |
| CCCc1cc(N2CCC[C@@H](NC)C2)nc(Nc2ccc(F)c(C#N)c2)n1 [Example 282, (R)-2-fluoro-5-[4-(3-methylaminopiperidin-1-yl)-6-propylpyrimidin-2-ylamino]benzonitrile] | 0.073 |
| CCCc1cc(N2CCC[C@@H](NC)C2)nc(Nc2ccc(C)c(C#N)c2)n1 [Example 283, (R)-2-methyl-5-[4-(3-methylaminopiperidin-1-yl)-6-propylpyrimidin-2-ylamino]benzonitrile] | 0.0084 |
| CCCc1cc(N2CCC[C@@H](NC)C2)nc(Nc2cc(N)cc(C(F)(F)F)c2)n1 [Example 284, (R)—N^1-[4-(3-methylaminopiperidin-1-yl)-6-propylpyrimidin-2-yl]-5-(trifluoromethyl)benzene-1,3-diamine] | 0.0032 |
| CCCc1cc(N2CCC[C@@H](NC)C2)nc(Nc2ccc(N)c(C(F)(F)F)c2)n1 [Example 285, (R)—N^1-[4-(3-methylaminopiperidin-1-yl)-6-propylpyrimidin-2-yl]-3-(trifluoromethyl)benzene-1,4-diamine] | 0.005 |
| CCCc1cc(N2CCC[C@@H](NC)C2)nc(Nc2cc(N)cc(C#N)c2)n1 [Example 286, (R)-3-amino-5-[4-(3-methylaminopiperidin-1-yl)-6-propylpyrimidin-2-ylamino]benzonitrile] | 0.0044 |
| CCCc1cc(N2CCC[C@@H](NC)C2)nc(Nc2ccc(F)c(C(F)(F)F)c2)n1 [Example 287, (R)-(4-fluoro-3-trifluoromethylphenyl)-[4-(3-methylaminopiperidin-1-yl)-6-propylpyrimidin-2-yl]amine] | 0.026 |
| CCCc1cc(N2CCC[C@@H](NCC)C2)nc(Nc2ccc(N)c([N+](=O)[O-])c2)n1 [Example 288, (R)—N^1-[4-(3-ethylaminopiperidin-1-yl)-6-propylpyrimidin-2-yl]-3-nitrobenzene-1,4-diamine] | 0.0046 |
| CCCc1cc(N2CCC[C@@H](NCC)C2)nc(Nc2ccc(F)c(N)c2)n1 [Example 289, (R)—N^1-[4-(3-ethylaminopiperidin-1-yl)-6-propylpyrimidin-2-yl]-4-fluorobenzene-1,3-diamine] | 0.0065 |
| CCCc1cc(N2CCC[C@@H](NCC)C2)nc(Nc2cc(N)cc(C(F)(F)F)c2)n1 [Example 290, (R)—N^1-[4-(3-ethylaminopiperidin-1-yl)-6-propylpyrimidin-2-yl]-5-(trifluoromethyl)benzene-1,3-diamine] | 0.0041 |
| CCCc1cc(N2CCC[C@@H](NCC)C2)nc(Nc2ccc(N)c(C(F)(F)F)c2)n1 [Example 291, (R)—N^1-[4-(3-ethylaminopiperidin-1-yl)-6-propylpyrimidin-2-yl]-3-(trifluoromethyl)benzene-1,4-diamine] | 0.0028 |
| CCCc1cc(N2CCC[C@@H](NCC)C2)nc(Nc2cc(N)cc(C#N)c2)n1 [Example 292, (R)-3-amino-5-[4-(3-ethylaminopiperidin-1-yl)-6-propylpyrimidin-2-ylamino]benzonitrile] | 0.019 |
| CCCCc1cc(N2CCC[C@@H](N)C2)nc(Nc2ccc(C)c(C#N)c2)n1 [Example 293, (R)-5-[4-(3-aminopiperidin-1-yl)-6-butylpyrimidin-2-ylamino]-2-methylbenzonitrile] | 0.023 |
| CCCCc1cc(N2CCC[C@@H](N)C2)nc(Nc2ccc(F)c(C#N)c2)n1 [Example 294, (R)-5-[4-(3-aminopiperidin-1-yl)-6-butylpyrimidin-2-ylamino]-2-fluorobenzonitrile] | 0.108 |
